Laboratory results taken from US20140357655A1, “SPIROINDOLINE DERIVATIVES AS GONADOTROPIN- RELEASING HORMONE RECEPTOR ANTAGONISTS” (Bayer Intellectual Property GmbH, priority 2012, published 2014).

Molecular target: T1, human GnRH receptor (Homo sapiens, UniProt P30968)
T1 sequence (P30968 1-328): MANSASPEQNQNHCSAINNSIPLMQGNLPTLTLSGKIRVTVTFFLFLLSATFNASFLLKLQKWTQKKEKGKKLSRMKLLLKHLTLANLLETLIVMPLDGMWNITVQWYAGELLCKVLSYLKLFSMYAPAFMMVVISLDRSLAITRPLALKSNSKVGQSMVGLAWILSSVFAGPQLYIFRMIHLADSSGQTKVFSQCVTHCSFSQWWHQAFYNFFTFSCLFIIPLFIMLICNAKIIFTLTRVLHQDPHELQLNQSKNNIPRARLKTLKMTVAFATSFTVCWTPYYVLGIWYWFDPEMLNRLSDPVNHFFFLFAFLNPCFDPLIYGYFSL
Test: IP-One HTRF assay with buserelin (at EC80) stimulation
Type: cell-based
Conditions: CHO cells stably expressing human GnRH receptor, read-out: Potency in IP-One HTRF assay, given as IC50
How it was run: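 CHO cells stably expressing human GnRH receptor, preincubated 1 h at 37° C with IP1-d2, were exposed to compound and buserelin at EC80 for 1 h at 37° C. After lysis with Tb-anti-IP1 antibody (1 h, 22° C), 665/620 nm HTRF ratio read; 10 concentrations, 20 μM–1 nM, duplicates, 4-parameter IC50.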

Structure (SMILES): O=C(NCc1ncccc1F)c1ccc2c(c1)C1(CCS(=O)(=O)CC1)C(C1CC1)N2S(=O)(=O)c1ccc(F)cc1 (centres unmarked) [Example 52, 2-cyclopropyl-1-[(4-fluorophenyl)sulfonyl]-N-[(3-fluoropyridin-2-yl)methyl]-1,2,2′,3′,5′,6′-hexahydrospiro[indole-3,4′-thiopyran]-5-carboxamide 1′,1′-dioxide]
- IC50: 0.752 µM

Structure (SMILES): COc1cccc(S(=O)(=O)N2c3ccc(C(=O)NCc4ncccc4F)cc3C3(CCS(=O)(=O)CC3)C2C2CC2)c1 (centres unmarked) [Example 53, 2-cyclopropyl-N-[(3-fluoropyridin-2-yl)methyl]-1-[(3-methoxyphenyl)sulfonyl]-1,2,2′,3′,5′,6′-hexahydrospiro[indole-3,4′-thiopyran]-5-carboxamide 1′,1′-dioxide]
- IC50: 0.617 µM

Structure (SMILES): C=CCC1N(S(=O)(=O)c2cccc(C(=O)OC)c2)c2ccc(C(=O)NCc3ccccc3Cl)cc2C12CCS(=O)(=O)CC2 (centres unmarked) [Example 54, methyl 3-({5-[N-(2-chlorobenzyl)carbamoyl]-1′,1′-dioxido-2-(prop-2-en-1-yl)-1,2,2′,3′,5′,6′-hexahydrospiro[indole-3,4′-thiopyran]-1-yl}sulfonyl)benzoate]
- IC50: 0.091 µM

Structure (SMILES): C=CC1N(S(=O)(=O)c2cccc(C(=O)OC)c2)c2ccc(C(=O)NCc3ccccc3Cl)cc2C12CCS(=O)(=O)CC2 (centres unmarked) [Example 55, methyl 3-({5-[N-(2-chlorobenzyl)carbamoyl]-1′,1′-dioxido-2-vinyl-1,2,2′,3′,5′,6′-hexahydrospiro[indole-3,4′-thiopyran]-1-yl}sulfonyl)benzoate]
- IC50: 0.622 µM

Structure (SMILES): C=CCC1N(S(=O)(=O)c2cccc(C(=O)O)c2)c2ccc(C(=O)NCc3ccccc3Cl)cc2C12CCS(=O)(=O)CC2 (centres unmarked) [Example 56, 3-({5-[(2-chlorobenzyl)carbamoyl]-1′,1′-dioxido-2-(prop-2-en-1-yl)-2′,3′,5′,6′-tetrahydrospiro[indole-3,4′-thiopyran]-1(2H)-yl}sulfonyl)benzoic acid]
- IC50: 0.136 µM

Structure (SMILES): C=CCC1N(S(=O)(=O)c2ccc(F)cc2)c2ccc(C(=O)NCc3ncccc3Cl)cc2C12CCS(=O)(=O)CC2 (centres unmarked) [Example 57, N-[(3-chloropyridin-2-yl)methyl]-1-[(4-fluorophenyl)sulfonyl]-2-(prop-2-en-1-yl)-1,2,2′,3′,5′,6′-hexahydrospiro[indole-3,4′-thiopyran]-5-carboxamide 1′,1′-dioxide]
- IC50: 0.071 µM

Structure (SMILES): C=CCC1N(S(=O)(=O)c2ccc(F)cc2)c2ccc(C(=O)Nc3cccc(C(=O)OC)c3)cc2C12CCS(=O)(=O)CC2 (centres unmarked) [Example 58, methyl 3-[({1-[(4-fluorophenyl)sulfonyl]-1′,1′-dioxido-2-(prop-2-en-1-yl)-1,2,2′,3′,5′,6′-hexahydrospiro[indole-3,4′-thiopyran]-5-yl}carbonyl)amino]benzoate]
- IC50: 0.041 µM

Structure (SMILES): C=CCC1N(S(=O)(=O)c2ccc(F)cc2)c2ccc(C(=O)Nc3cccc(C(=O)O)c3)cc2C12CCS(=O)(=O)CC2 (centres unmarked) [Example 59, 3-[({1-[(4-fluorophenyl)sulfonyl]-1′,1′-dioxido-2-(prop-2-en-1-yl)-1,2,2′,3′,5′,6′-hexahydrospiro[indole-3,4′-thiopyran]-5-yl}carbonyl)amino]benzoic acid]
- IC50: 0.08 µM

Structure (SMILES): COC(=O)c1cccc(S(=O)(=O)N2c3ccc(C(=O)NCc4ccccc4Cl)cc3C3(CCS(=O)(=O)CC3)C2C2CC2)c1 (centres unmarked) [Example 60, methyl 3-({5-[(2-chlorobenzyl)carbamoyl]-2-cyclopropyl-1′,1′-dioxido-2′,3′,5′,6′-tetrahydrospiro[indole-3,4′-thiopyran]-1(2H)-yl}sulfonyl)benzoate]
- IC50: 0.192 µM

Structure (SMILES): COc1cccc(S(=O)(=O)N2c3ccc(C(=O)Nc4cccc(S(=O)(=O)N=C(N(C)C)N(C)C)c4)cc3C3(CCS(=O)(=O)CC3)C2C2CC2)c1 (centres unmarked) [Example 62, N-(3-{[bis(dimethylamino)methylidene]sulfamoyl}phenyl)-2-cyclopropyl-1-[(3-methoxyphenyl)sulfonyl]-1,2,2′,3′,5′,6′-hexahydrospiro[indole-3,4′-thiopyran]-5-carboxamide 1′,1′-dioxide]
- IC50: 0.0098 µM

Structure (SMILES): O=C(Nc1ccon1)c1ccc2c(c1)C1(CCS(=O)(=O)CC1)C(C1CC1)N2S(=O)(=O)c1ccc(F)cc1 (centres unmarked) [Example 63, 2-cyclopropyl-1-[(4-fluorophenyl)sulfonyl]-N-(1,2-oxazol-3-yl)-1,2,2′,3′,5′,6′-hexahydrospiro[indole-3,4′-thiopyran]-5-carboxamide 1′,1′-dioxide]
- IC50: 0.325 µM

Structure (SMILES): CN(C)C(=NS(=O)(=O)c1cccc(NC(=O)c2ccc3c(c2)C2(CCS(=O)(=O)CC2)C(C2CC2)N3S(=O)(=O)c2ccc(F)cc2)c1)N(C)C (centres unmarked) [Example 64, N-(3-{[bis(dimethylamino)methylidene]sulfamoyl}phenyl)-2-cyclopropyl-1-[(4-fluorophenyl)sulfonyl]-1,2,2′,3′,5′,6′-hexahydrospiro[indole-3,4′-thiopyran]-5-carboxamide 1′,1′-dioxide]
- IC50: 0.0093 µM

Structure (SMILES): O=C(NCc1ccc(C(F)(F)F)cn1)c1ccc2c(c1)C1(CCS(=O)(=O)CC1)C(C1CC1)N2S(=O)(=O)c1ccc(F)cc1 (centres unmarked) [Example 65, 2-cyclopropyl-1-[(4-fluorophenyl)sulfonyl]-N-{[5-(trifluoromethyl)pyridin-2-yl]methyl}-1,2,2′,3′,5′,6′-hexahydrospiro[indole-3,4′-thiopyran]-5-carboxamide 1′,1′-dioxide]
- IC50: 0.479 µM

Structure (SMILES): Cc1cc(NS(=O)(=O)c2cccc(NC(=O)c3ccc4c(c3)C3(CCS(=O)(=O)CC3)C(C3CC3)N4S(=O)(=O)c3ccc(F)cc3)c2)no1 (centres unmarked) [Example 66, 2-cyclopropyl-1-[(4-fluorophenyl)sulfonyl]-N-{3-[(5-methyl-1,2-oxazol-3-yl)sulfamoyl]phenyl}-1,2,2′,3′,5′,6′-hexahydrospiro[indole-3,4′-thiopyran]-5-carboxamide 1′,1′-dioxide]
- IC50: 0.177 µM

Structure (SMILES): O=C(NCc1ccccc1C(F)F)c1ccc2c(c1)C1(CCS(=O)(=O)CC1)C(C1CC1)N2S(=O)(=O)c1ccc(F)cc1 (centres unmarked) [Example 68, 2-cyclopropyl-N-[2-(difluoromethyl)benzyl]-1-[(4-fluorophenyl)sulfonyl]-1,2,2′,3′,5′,6′-hexahydrospiro[indole-3,4′-thiopyran]-5-carboxamide 1′,1′-dioxide]
- IC50: 0.0045 µM

Structure (SMILES): O=C(NCc1ccccc1O)c1ccc2c(c1)C1(CCS(=O)(=O)CC1)C(C1CC1)N2S(=O)(=O)c1ccc(F)cc1 (centres unmarked) [Example 69, 2-cyclopropyl-1-[(4-fluorophenyl)sulfonyl]-N-(2-hydroxybenzyl)-1,2,2′,3′,5′,6′-hexahydrospiro[indole-3,4′-thiopyran]-5-carboxamide 1′,1′-dioxide]
- IC50: 0.32 µM

Structure (SMILES): N#Cc1ccc(S(=O)(=O)N2c3ccc(C(=O)NCc4ncccc4Cl)cc3C3(CCS(=O)(=O)CC3)C2C2CC2)cc1 (centres unmarked) [Example 70, N-[(3-chloropyridin-2-yl)methyl]-1-[(4-cyanophenyl)sulfonyl]-2-cyclopropyl-1,2,2′,3′,5′,6′-hexahydrospiro[indole-3,4′-thiopyran]-5-carboxamide 1′,1′-dioxide]
- IC50: 0.063 µM

Structure (SMILES): N#Cc1ccc(S(=O)(=O)N2c3ccc(C(=O)Nc4cncc(Cl)c4)cc3C3(CCS(=O)(=O)CC3)C2C2CC2)cc1 (centres unmarked) [Example 71, N-(5-chloropyridin-3-yl)-1-[(4-cyanophenyl)sulfonyl]-2-cyclopropyl-1,2,2′,3′,5′,6′-hexahydrospiro[indole-3,4′-thiopyran]-5-carboxamide 1′,1′-dioxide]
- IC50: 0.052 µM

Structure (SMILES): N#Cc1ccc(S(=O)(=O)N2c3ccc(C(=O)NCc4ccccc4C(F)(F)F)cc3C3(CCS(=O)(=O)CC3)C2C2CC2)cc1 (centres unmarked) [Example 72, 1-[(4-cyanophenyl)sulfonyl]-2-cyclopropyl-N-[2-(trifluoromethyl)benzyl]-1,2,2′,3′,5′,6′-hexahydrospiro[indole-3,4′-thiopyran]-5-carboxamide 1′,1′-dioxide]
- IC50: 0.013 µM

Structure (SMILES): N#Cc1ccc(S(=O)(=O)N2c3ccc(C(=O)Nc4ncco4)cc3C3(CCS(=O)(=O)CC3)C2C2CC2)cc1 (centres unmarked) [Example 73, 1-[(4-cyanophenyl)sulfonyl]-2-cyclopropyl-N-(1,3-oxazol-2-yl)-1,2,2′,3′,5′,6′-hexahydrospiro[indole-3,4′-thiopyran]-5-carboxamide 1′,1′-dioxide]
- IC50: 0.13 µM

Structure (SMILES): N#Cc1ccc(S(=O)(=O)N2c3ccc(C(=O)Nc4ccccc4Cl)cc3C3(CCS(=O)(=O)CC3)C2C2CC2)cc1 (centres unmarked) [Example 74, N-(2-chlorophenyl)-1-[(4-cyanophenyl)sulfonyl]-2-cyclopropyl-1,2,2′,3′,5′,6′-hexahydrospiro[indole-3,4′-thiopyran]-5-carboxamide 1′,1′-dioxide]
- IC50: 0.066 µM

Structure (SMILES): N#Cc1cccc(S(=O)(=O)N2c3ccc(C(=O)NCc4ccccc4Cl)cc3C3(CCS(=O)(=O)CC3)C2C2CC2)c1 (centres unmarked) [Example 76, N-(2-chlorobenzyl)-1-[(3-cyanophenyl)sulfonyl]-2-cyclopropyl-1,2,2′,3′,5′,6′-hexahydrospiro[indole-3,4′-thiopyran]-5-carboxamide 1′,1′-dioxide]
- IC50: 0.044 µM

Structure (SMILES): N#Cc1cccc(S(=O)(=O)N2c3ccc(C(=O)Nc4cncc(Cl)c4)cc3C3(CCS(=O)(=O)CC3)C2C2CC2)c1 (centres unmarked) [Example 77, N-(5-chloropyridin-3-yl)-1-[(3-cyanophenyl)sulfonyl]-2-cyclopropyl-1,2,2′,3′,5′,6′-hexahydrospiro[indole-3,4′-thiopyran]-5-carboxamide 1′,1′-dioxide]
- IC50: 0.7 µM
